Values of other authors as cited in patent US12263155B2, “Combinations of monoamine oxidase inhibitors and serotonin receptor agonists and their therapeutic use” (Remedi, Inc., priority 2022, dated 2025).
Read-outs that look alike come from different tables or passages of the source.

What was measured:
[1] = in vivo; cited from earlier work
platelet MAO-B = molecular target: T1, platelet MAO-B (Homo sapiens, UniProt P27338); conditions: cited from earlier work
T1 construct: host or cells: human platelets
T1 sequence (P27338 1-520): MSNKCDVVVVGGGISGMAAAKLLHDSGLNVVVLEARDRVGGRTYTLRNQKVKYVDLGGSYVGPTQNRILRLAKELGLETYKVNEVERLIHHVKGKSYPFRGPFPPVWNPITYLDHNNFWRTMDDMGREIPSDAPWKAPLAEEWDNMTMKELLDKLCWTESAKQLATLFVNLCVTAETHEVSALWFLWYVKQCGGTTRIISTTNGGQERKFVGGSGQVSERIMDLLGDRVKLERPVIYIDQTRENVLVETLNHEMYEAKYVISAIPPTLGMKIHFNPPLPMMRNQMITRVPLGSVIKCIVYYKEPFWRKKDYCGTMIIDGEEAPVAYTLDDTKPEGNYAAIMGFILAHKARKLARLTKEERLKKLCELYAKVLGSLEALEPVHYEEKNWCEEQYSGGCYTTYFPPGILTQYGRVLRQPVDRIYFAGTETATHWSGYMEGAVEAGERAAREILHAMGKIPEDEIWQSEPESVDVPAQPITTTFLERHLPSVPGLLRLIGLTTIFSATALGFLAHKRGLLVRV

Row | Structure (SMILES) | apparent volume of distribution [1] | inhibition of platelet MAO-B (platelet MAO-B; 450 mg dose) | inhibition of platelet MAO-B (platelet MAO-B; human subjects, single 100 mg dose)
1 | CN(C)CCc1c[nH]c2ccccc12 [DMT, N,N-dimethyltryptamine] | 36 to 55 L/kg | – | –
2 | O=C(NCCN1CCOCC1)c1ccc(Cl)cc1 [moclobemide] | – | 32% | 27%
